The values that follow are results of earlier work, collected in patent EP2939710B1, “Active Mixtures” (Symrise AG, priority 2014, dated 2015).

Each structure is given as a SMILES string.

The conditions of the series: water (20° dH) at 20 °C, solid active agent.

On to `Nc1nc2c(ncn2COCCO)c(=O)[nH]1` [Acyclovir, 2-Amino-1,9-dihydro-9-((2-hydroxyethoxy)methyl)-6H-Purin-6-one], for which the solubility in water result was “less than 5 g/L”.
